Patent US5624956A, “Urea derivatives useful as platelet aggregation inhibitors” (The Monsanto Company, priority 1995, dated 1997)

Test system: platelet aggregation (dog platelet-rich plasma)
Assay: In-vitro platelet aggregation in PRP (ADP-induced, dog)
Type: cell-based
Conditions: Canis lupus familiaris, ADP 50 um final concentration; for inhibition at 10 µM: at 10^-5 M, read-out: Dog PRP % Inh; for IC50: preincubation at 37° C., aggregation monitored for 1 minute
Procedure: IN-VITRO PLATELET AGGREGATION IN PRP
Healthy male or female dogs were fasted for 8 hours prior to drawing blood; then 30 ml whole blood was collected using a butterfly needle and 30 cc plastic syringe with 3 ml of 0.129M buffered sodium citrate (3.8%). The syringe was rotated carefully as blood was drawn to mix the citrate. Platelet-rich plasma (PRP) was prepared by centrifugation at 975×g for 3.17 minutes at room temperature allowing the centrifuge to coast to a stop without braking. The PRP was removed from the blood with a plastic pipette and placed in a plastic capped, 50 mL Corning conical sterile centrifuge tube which was held at room temperature. Platelet poor plasma (PPP) was prepared by centrifuging the remaining blood at 2000×g for 15 minutes at room temperature allowing the centrifuge to coast to a stop without braking. The PRP was adjusted with PPP to a count of 2-3×10^8 platelets per mL. 400 uL of the PRP preparation and 50 uL of the compounds solution to be tested or saline were preincubated for […] at 37° C. in a […].). 50 uL of adenosine 5' diphosphate (ADP) (50 um final concentration) was added to the cuvettes and the aggregation was monitored for 1 minute. All compounds are tested in duplicate. Results are calculated as follows: Percent of control=[(maximal OD minus initial OD of compound) divided by (maximal OD minus initial OD of control saline)]×100. The % inhibition=100-(percent of control).
The compounds tested and their median inhibitory concentrations (IC50) are recorded in Table I. IC50 's (dosage at which 50% of platelet aggregation is inhibited) were calculated by linear regression of the dose response curve.

## CC(C)[C@H](NC(=O)Nc1ccc(C(=N)N)cc1)C(=O)NC(CC(=O)O)c1cccnc1 (single isomer, unassigned) [10 (isomer 1)]
  inhibition at 10 µM: 9%

## C[C@H](CNC(=O)Nc1ccc(C(=N)N)cc1)C(=O)NC(CC(=O)O)c1ccc2c(c1)OCO2 (single isomer, unassigned) [14 (isomer 1)]
  IC50: 2000 nM

## N=C(N)c1ccc(NC(=O)NCCC(=O)NC(CC(=O)O)c2cccnc2)cc1 (stereo not shown) [Example 2]
  IC50: 330 nM

## N=C(N)c1ccc(NC(=O)NCC(=O)NC(CC(=O)O)c2cccnc2)cc1 (stereo not shown) [Example 4]
  IC50: 260 nM

## CN=C(NCCC(=O)NCCC(=O)O)Nc1ccc(C(=N)N)cc1 [Example 6, β-[[3-[[[4-(aminoiminomethyl)phenyl]amino]N-methylcarbonylimide]aminopropanoyl]amino]propanoic acid]
  inhibition at 10 µM: 5%

## N=C(N)c1ccc(NC(=S)NCCC(=O)NCCC(=O)O)cc1 [Example 8, β-[[3-[[[4(aminoiminomethyl)phenyl]amino]-thiocarbonyl]aminopropanoyl]amino]propanoic acid]
  IC50: 4900 nM

## N=C(N)c1ccc(NC(=O)NC(CC(=O)NCCC(=O)O)c2cccnc2)cc1 (stereo not drawn) [Example 12, β-[[3-[[[[4-(aminoiminomethyl)phenyl]amino]-carbonyl]amino](3-pyridine)propanoyl]amino]-propanoic acid]
  IC50: 6000 nM
